The target of data set [1] is T1, Isoleucine--tRNA ligase, cytoplasmic (Homo sapiens, UniProt P41252).
T1 sequence (P41252 whole entry): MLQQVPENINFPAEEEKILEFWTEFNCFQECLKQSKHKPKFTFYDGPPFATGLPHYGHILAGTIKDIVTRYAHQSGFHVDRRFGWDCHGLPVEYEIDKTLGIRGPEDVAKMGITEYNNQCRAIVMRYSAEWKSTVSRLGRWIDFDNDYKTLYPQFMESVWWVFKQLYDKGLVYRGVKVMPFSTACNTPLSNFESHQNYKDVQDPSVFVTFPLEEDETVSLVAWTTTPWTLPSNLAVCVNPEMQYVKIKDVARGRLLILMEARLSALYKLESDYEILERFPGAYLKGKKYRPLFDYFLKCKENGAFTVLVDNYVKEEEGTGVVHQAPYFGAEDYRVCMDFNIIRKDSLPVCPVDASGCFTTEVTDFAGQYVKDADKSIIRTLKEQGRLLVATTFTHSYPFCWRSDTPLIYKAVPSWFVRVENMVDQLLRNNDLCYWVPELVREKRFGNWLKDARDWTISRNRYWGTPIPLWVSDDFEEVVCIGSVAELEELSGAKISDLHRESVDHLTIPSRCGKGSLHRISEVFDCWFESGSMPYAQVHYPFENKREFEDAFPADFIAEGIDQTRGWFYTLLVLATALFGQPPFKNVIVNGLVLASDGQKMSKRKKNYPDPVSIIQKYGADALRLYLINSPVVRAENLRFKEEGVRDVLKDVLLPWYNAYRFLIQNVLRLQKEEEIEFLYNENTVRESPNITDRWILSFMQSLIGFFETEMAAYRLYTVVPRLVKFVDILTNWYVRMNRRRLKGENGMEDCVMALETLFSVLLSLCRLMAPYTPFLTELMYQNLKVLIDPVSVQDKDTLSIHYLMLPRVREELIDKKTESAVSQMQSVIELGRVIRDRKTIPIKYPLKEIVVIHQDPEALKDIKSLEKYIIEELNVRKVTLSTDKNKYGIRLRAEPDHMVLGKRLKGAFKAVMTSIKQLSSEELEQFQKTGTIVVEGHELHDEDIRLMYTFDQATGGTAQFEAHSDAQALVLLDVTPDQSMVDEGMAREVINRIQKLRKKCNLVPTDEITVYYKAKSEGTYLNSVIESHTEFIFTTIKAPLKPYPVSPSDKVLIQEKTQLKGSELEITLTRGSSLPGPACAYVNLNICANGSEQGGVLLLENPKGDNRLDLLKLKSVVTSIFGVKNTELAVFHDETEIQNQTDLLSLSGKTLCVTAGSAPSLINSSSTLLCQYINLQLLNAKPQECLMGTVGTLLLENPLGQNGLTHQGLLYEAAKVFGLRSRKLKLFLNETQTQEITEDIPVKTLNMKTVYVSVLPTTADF
The data set is described as follows: Inhibition of IleRS.

In data set [2] the test system is NRK. Briefly: Effect on morphological reversion in src transformed NRK cells at 3 ug/mL. The data set is classed as functional. The note with it: Rattus norvegicus.
For data set [3], the system named is NRK. Briefly: Toxicity against src transformed NRK cells at 100 ug/mL. The data set is classed as cell-based. To be noted: rat.
For data set [4], the system named is NRK. The data set is described as follows: Effect on morphological reversion in src transformed NRK cells at 30 ug/mL. To be noted: Rattus norvegicus. The data set is classed as functional.
For data set [5], the system named is Osteoclast. Briefly: Induction of apoptosis in mouse osteoclasts. The data set is classed as functional.
In data set [6] the test system is NRK. Briefly: Effect on morphological reversion in src transformed NRK cells at 10 ug/mL. The data set is classed as functional. The note with it: Rattus norvegicus.
Data set [7] deals with NRK. Briefly: Effect on morphological reversion in src transformed NRK cells at 1 ug/mL. To be noted: Rattus norvegicus. The data set is classed as functional.
The subject of data set [8] is NRK. The data set is described as follows: Effect on morphological reversion in src transformed NRK cells at 100 ug/mL. The data set is classed as functional. To be noted: Rattus norvegicus.
Data set [9] deals with NRK. Briefly: Effect on morphological reversion in src transformed NRK cells at 0.3 ug/mL. The data set is classed as functional. The note with it: Rattus norvegicus.
The subject of data set [10] is NRK. Briefly: […] morphological reversion in src transformed NRK cells. The data set is classed as functional, cell-based. To be noted: Rattus norvegicus.

The structures appear in SMILES notation. Converted amounts (≈) assume the structure as drawn. Bounds are passed on as bounds.

In data set [1], `CC(/C=C/[C@H](OC(=O)CCC(=O)O)[C@@H](C)/C=C/C(=O)O)=C\C[C@H]1O[C@@]2(CC[C@H](C)[C@H](/C=C/C(C)=C/C(=O)O)O2)CC[C@@H]1C` registered an IC50 above 1660 nM. In data set [2], this molecule returned an inhibition at 3 µg/mL below 10%. Also, the Activity result in data set [3] is “Toxic”; in data set [5], 12.4 µg/mL. In [4], this molecule showed an inhibition at 30 µg/mL below 10%. In addition, the inhibition at 10 µg/mL in data set [6] was below 10%.

For the molecule `CCCC[C@@]1(OC(=O)CCC(=O)O)CC[C@]2(CC[C@H](C)[C@@H](C/C=C(C)/C=C/[C@H](O)[C@@H](O)/C=C/C(=O)O)O2)O[C@H]1/C=C/C(C)=C/C(=O)O` [4-HYDROXY REVEROMYCIN A], the inhibition at 1 µg/mL in data set [7] was below 10%. This molecule showed a 50% inhibitory concentration (IC50) in [1] of 21.7 nM. Also, the inhibition at 3 µg/mL in data set [2] is below 10%. In data set [8], this molecule showed an inhibition at 100 µg/mL above 80%. In addition, in [4], the inhibition at 30 µg/mL is 20%. The molecule also came in with an inhibition at 0.3 µg/mL in data set [9] below 10%. The molecule also showed an Activity in data set [5] of 1.01 µg/mL. This molecule also returned an inhibition at 10 µg/mL in data set [6] of 10%.

As for `CCCC[C@@]1(OC(=O)CCC(=O)O)CC[C@]2(CC[C@H](C)[C@@H](C/C=C(C)/C=C/[C@H](O)[C@@H](C)CO)O2)O[C@H]1/C=C/C(C)=C/C(=O)O`, the inhibition at 1 µg/mL in data set [7] is below 10%. In addition, inhibition in data set [1] was half-maximal at 36.9 nM (IC50). The same molecule gave an inhibition at 3 µg/mL in data set [2] below 10%. In addition, in data set [8], the inhibition at 100 µg/mL was above 80%. For the same molecule, in data set [4], the inhibition at 30 µg/mL came out at 20%. The molecule also returned an inhibition at 0.3 µg/mL in data set [9] below 10%. In [5], this molecule came in with an Activity of 6.31 µg/mL. The molecule further returned an inhibition at 10 µg/mL in [6] below 10%.

As to `CCCC[C@@]1(OC(=O)CCC(=O)O)CC[C@]2(CC[C@H](C)[C@@H](C/C=C(C)/C=C/[C@H](O)[C@@H](C)/C=C/C(=O)O)O2)O[C@H]1/C=C/C(C)=C/C(=O)OC`, the inhibition at 1 µg/mL in data set [7] is below 10%. This molecule also displayed an IC50 in data set [1] above 1480 nM. This molecule also returned an inhibition at 3 µg/mL in data set [2] below 10%. The molecule further returned an inhibition at 100 µg/mL in data set [8] above 80%. The molecule further gave an inhibition at 30 µg/mL in data set [4] above 80%. The molecule also returned an Activity in data set [5] of 3.1 µg/mL. For the same molecule, testing at 10 µg/mL in data set [6] gave an inhibition of 10%.

As to `CCCC[C@@]1(OC(=O)CCC(=O)O)CC[C@]2(CC[C@H](C)[C@@H](C/C=C(C)/C=C/[C@H](O)[C@@H](C)/C=C/C(=O)O)O2)O[C@H]1/C=C/C(C)=C/C(=O)O` [REVEROMYCIN A], at 1 µg/mL the inhibition in data set [7] was 10%. Besides, the IC50 in [1] is 4.46 nM. In data set [2], this molecule came in with an inhibition at 3 µg/mL of 20%. The inhibition at 100 µg/mL in [8] was above 80%. Moreover, the inhibition at 30 µg/mL in data set [4] is above 80%. For the same molecule, the inhibition at 0.3 µg/mL in data set [9] is below 10%. In addition, in [5], the Activity worked out at 0.06 µg/mL. In data set [6], this molecule displayed an inhibition at 10 µg/mL of 50%. Further, in [10], the EC50 is 1.58 µg/mL (≈ 2.39 µM).

For orientation: IC50 means the midpoint of a concentration-inhibition curve. What is called inhibition is how much of the control response was suppressed. A high value points to a strong effect. A word on the EC50: it is the concentration needed to bring the measured effect to its halfway point. Read a high EC50 as weaker potency.

The values are drawn from ChEMBL document CHEMBL1157437, “Synthesis and biological activities of reveromycin A and spirofungin A derivatives” (Bioorg Med Chem Lett, 2008).
